Data reported in publication PMC6920794, “Evaluation of Novel Chalcone-Thiosemicarbazones Derivatives as Potential Anti-Leishmania amazonensis Agents and Its HSA Binding Studies” (Biomolecules, 2019).

What was measured:
[1] = constant of substituent 4-X; cited from earlier work
[2] = system: L. amazonensis axenic amastigotes; assay: Axenic amastigotes assay (resazurin); assay type: cell-based; settings: Leishmania amazonensis, 72 h of culture, table title says 48 h
Procedure: Promastigote forms of L. amazonensis (MHOM/BR/77/LTB0016) were grown to a stationary phase, washed once in phosphate buffer solution (PBS) (pH = 7.4) and adjusted to 5 × 10^6 parasites/mL in Schneider’s medium, supplemented with 20% fetal bovine solution (FBS) pH = 5.5 and maintained at 305K. After 5 days of cultivation, the rounded forms without free flagella were obtained and, after heat shock, were used in the appropriate assays. To evaluate the activity against axenic amastigotes, the parasites were incubated with increasing concentrations of the prototypes (diluted in DMSO) for 72 h at 305K. These assays were performed in triplicate in 96-well flat bottom plates (Falcon Co, Franklin Lakes, USA). The leishmanicidal activity was evaluated by adding 22 μl of resazurin to each well. After 4 h, the cell viability was measured as described above. Calculation of the IC50 values was determined in relation to the control by a sigmoidal model using GraphPad Prism 6.0 software.

## NC(=S)N/N=C(\C=C\c1ccc(Cl)cc1)c1ccccc1 [Compound 5e, (1E,2E)-3-(4′-chlorophenyl)-1-phenylprop-2-en-1-one thiosemicarbazone]
[1]
  Hammett constant σp: 0.34
  Hansh constant π (lipophilicity): 0.71
  Taft constant Es: −0.97
  molecular refractivity MR: 0.60
[2]
  IC50: 3.19 ± 1.2 µM
